Test systems include OVCAR-4; DLD-1; SNB-75; EKVX; UACC-257; IGROV-1; MOLT-4; HCT-15; HCT-116; UACC-62; SF-539; OVCAR-8; NCI-H226; DMS-114; K562; HCC 2998.
What all share (experiment): inhibition of tumour cell growth, NCI panel, 48 h

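96-well plates; 48 h exposure; 5 concentrations. Endpoints by linear interpolation between flanking doses. Not reached: highest tested concentration assigned. GI50 marks 50% less growth.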 The source made the active and inactive calls. Cut-off read from the data, not from the text of the source: active = GI50 up to about 1.1 µM and inactive = higher.

In the case of `CCOC(=O)c1ccc(/N=C\c2ccc(N(CCC#N)CCC#N)cc2)cc1`, the GI50 with OVCAR-4 is 41.6 µM (inactive); in the assay on DLD-1 it was 41.7 µM (inactive); in the assay on SNB-75 it was 47.4 µM (inactive); with EKVX, > 100 µM (inactive); in the assay on UACC-257, > 100 µM (inactive); with IGROV-1 it was 81.8 µM (inactive). In addition, the GI50 in the assay on MOLT-4 is 32.4 µM (inactive); in the assay with HCT-15 it was 21.4 µM; with HCT-116, 48 µM (inactive); with UACC-62, 21.5 µM (inactive); in the assay on SF-539, 45.5 µM (inactive); in the assay with OVCAR-8, 89.1 µM (inactive). Also, the GI50 in the assay with NCI-H226 was > 100 µM (inactive); in the assay on DMS-114 it was 70 µM (inactive); with K562 it was 28.2 µM (inactive).
For `COc1cc(CNC2c3cc4c(cc3C(c3cc(OC)c(OC)c(OC)c3)[C@H]3C(=O)OCC23)OCO4)cc(OC)c1OC` (stereo not given in full), the GI50 in the assay on DLD-1 is 0.41 µM (active); in the assay on SNB-75 it was 0.535 µM (active); in the assay on UACC-257, > 100 µM (inactive); in the assay on IGROV-1 it was 1.1 µM (active); in the assay on MOLT-4, 0.367 µM (active); in the assay with HCT-15, 0.324 µM. The GI50 in the assay with HCT-116 was 0.245 µM (active); in the assay with UACC-62 it was 0.156 µM (active); in the assay on SF-539 it was 0.191 µM (active); in the assay with OVCAR-8 it was 0.247 µM (active); with NCI-H226, 0.128 µM (active); in the assay on DMS-114, 0.197 µM (active). In addition, the GI50 in the assay with HCC 2998 was 0.305 µM (active); in the assay on K562, 0.298 µM (active).
For `CC(=O)NNc1nc(C)c(C(=O)/C=C/c2ccc(N(C)C)cc2)s1`, the GI50 is > 100 µM (inactive) in the assay with DLD-1; 79.8 µM (inactive) in the assay with SNB-75; > 100 µM (inactive) in the assay on EKVX; > 100 µM (inactive) with UACC-257; > 100 µM (inactive) with IGROV-1; > 100 µM (inactive) in the assay on MOLT-4. For the same compound, the GI50 was more than 100 µM in the assay on HCT-15; > 100 µM (inactive) in the assay with UACC-62; > 100 µM (inactive) in the assay on SF-539; > 100 µM (inactive) in the assay on OVCAR-8; > 100 µM (inactive) in the assay on NCI-H226; > 100 µM (inactive) with DMS-114. Besides, the GI50 in the assay on HCC 2998 and in the assay on K562 was > 100 µM (inactive) in each case.
For `C#CC[N+](C)(CC#C)CC#C`, the GI50 in the assay with OVCAR-4, with DLD-1, in the assay with SNB-75, with EKVX, in the assay on UACC-257 and in the assay with IGROV-1 was > 100 µM (inactive) each time. Moreover, the GI50 in the assay with MOLT-4 was > 100 µM (inactive); in the assay with HCT-15, more than 100 µM; in the assay with UACC-62 it was > 100 µM (inactive); in the assay on OVCAR-8, > 100 µM (inactive); in the assay with DMS-114, > 100 µM (inactive); in the assay with HCC 2998 it was > 100 µM (inactive). Besides, the GI50 with K562 was > 100 µM (inactive).
In the case of `Cc1cc(OC(=O)c2c(C)cc(OC(=O)c3c(C)cc(O)cc3O)cc2O)cc(O)c1C(=O)O` [GYROPHORIC ACID], the GI50 in the assay with OVCAR-4 was > 100 µM (inactive); with DLD-1 it was > 100 µM (inactive); in the assay with SNB-75, 91.6 µM (inactive); in the assay on EKVX, > 100 µM (inactive); with UACC-257 it was > 100 µM (inactive); in the assay on IGROV-1, > 100 µM (inactive). Further, the GI50 in the assay on MOLT-4, in the assay on UACC-62, in the assay with SF-539, with OVCAR-8, with DMS-114 and in the assay on HCC 2998 was > 100 µM (inactive) each time. In addition, the GI50 in the assay on K562 is > 100 µM (inactive).
Take `NC(Cc1ccccc1)C(=O)OCN1C(=O)C2C3C=CC(C2C1=O)C1C2C(=O)N(COC(=O)C(N)Cc4ccccc4)C(=O)C2C31` (stereo not given): the GI50 in the assay with OVCAR-4 is 18.3 µM (inactive); in the assay with DLD-1 it was 23 µM (inactive); in the assay with SNB-75, 22.9 µM (inactive); in the assay with EKVX it was > 100 µM (inactive); with UACC-257, 28.8 µM (inactive); in the assay on IGROV-1 it was 35.6 µM (inactive). Also, the GI50 in the assay on HCT-15 is 17.8 µM; in the assay on HCT-116, 16.3 µM (inactive); in the assay on UACC-62, 23 µM (inactive); in the assay on SF-539, 22.2 µM (inactive); in the assay with OVCAR-8, 23.7 µM (inactive); with NCI-H226, 46.7 µM (inactive). Also, the GI50 is 20.9 µM (inactive) in the assay on DMS-114 and 25.8 µM (inactive) with K562.
Regarding `CCOc1ccc(NC(=O)C(=O)CC(=O)C2=C(C)Nc3ccccc3S2)cc1`, the GI50 in the assay with OVCAR-4, in the assay on DLD-1, in the assay with EKVX, with UACC-257, in the assay on IGROV-1 and in the assay on MOLT-4 was > 50 µM (inactive) throughout. In addition, the GI50 was more than 50 µM in the assay with HCT-15; > 50 µM (inactive) in the assay with HCT-116; > 50 µM (inactive) with UACC-62; > 50 µM (inactive) in the assay on SF-539; > 50 µM (inactive) in the assay on OVCAR-8; > 50 µM (inactive) in the assay with NCI-H226. The GI50 with DMS-114, with HCC 2998 and with K562 was > 50 µM (inactive) in each case.
With `O=c1c2ccccc2[nH]c2ccc3c(Cl)n[nH]c3c12`, the GI50 with OVCAR-4 is 59.4 µM (inactive); in the assay on DLD-1, 19.5 µM (inactive); with SNB-75, 42.9 µM (inactive); in the assay with EKVX it was 47.3 µM (inactive); with UACC-257, 37.2 µM (inactive); in the assay with IGROV-1 it was 35 µM (inactive). Besides, the GI50 in the assay on MOLT-4 is 9.95 µM (inactive); with HCT-15, 35.6 µM; with HCT-116, 31.8 µM (inactive); in the assay with UACC-62 it was 35 µM (inactive); in the assay on OVCAR-8, 40.5 µM (inactive); in the assay with NCI-H226, 0.54 µM (active). Also, the figures for the GI50 with DMS-114, in the assay with HCC 2998 and with K562 were 57.7 µM (inactive), 35.5 µM (inactive) and 34.3 µM (inactive), respectively.
For the compound `NC1=NN(c2ccccc2)C(=O)C1C(=O)C(=O)Nc1cccc(C(F)(F)F)c1` (stereo not given), the GI50 in the assay with OVCAR-4, in the assay on DLD-1, with EKVX, in the assay on UACC-257, with IGROV-1 and in the assay with MOLT-4 was > 100 µM (inactive) throughout. Moreover, the GI50 in the assay on HCT-15 is more than 100 µM; in the assay with HCT-116, > 100 µM (inactive); in the assay on UACC-62, > 100 µM (inactive); in the assay on SF-539, > 100 µM (inactive); in the assay with OVCAR-8 it was > 100 µM (inactive); in the assay with NCI-H226, > 100 µM (inactive). In addition, the GI50 was > 100 µM (inactive) in the assay with DMS-114, > 100 µM (inactive) with HCC 2998 and 86.1 µM (inactive) in the assay on K562.
As for `Cc1nc(Nc2ccccc2)sc1C(=O)CC(=O)C(=O)Nc1c(C(C)C)cccc1C(C)C`, the GI50 in the assay with OVCAR-4 was > 100 µM (inactive); in the assay with DLD-1 it was 87.9 µM (inactive); in the assay on EKVX, 19.8 µM (inactive); with UACC-257 it was > 100 µM (inactive); in the assay on IGROV-1, > 100 µM (inactive); with MOLT-4, > 100 µM (inactive). For the same compound, the GI50 in the assay with HCT-15 is 98.9 µM; with HCT-116 it was > 100 µM (inactive); in the assay with UACC-62, 55.6 µM (inactive); with SF-539 it was > 100 µM (inactive); with OVCAR-8 it was > 100 µM (inactive); with NCI-H226, > 100 µM (inactive). The results for the GI50 in the assay on DMS-114, in the assay on HCC 2998 and in the assay with K562 were 81.7 µM (inactive), > 100 µM (inactive) and 83 µM (inactive), respectively.
On to `CC1=C(/C(C)=N/NC(=O)c2ccccc2O)C(C)C(/C(C)=N/NC(=O)c2ccccc2O)=C(C)N1`, for which the GI50 in the assay with OVCAR-4 is 11.5 µM (inactive); in the assay on DLD-1 it was 27.9 µM (inactive); in the assay with SNB-75 it was 11.6 µM (inactive); in the assay on EKVX, 14.7 µM (inactive); in the assay on UACC-257, 23.5 µM (inactive); with IGROV-1, 10.6 µM (inactive). Moreover, the GI50 is 5.09 µM (inactive) in the assay with MOLT-4; 22.8 µM in the assay on HCT-15; 18.5 µM (inactive) in the assay on HCT-116; 6.5 µM (inactive) with UACC-62; 20 µM (inactive) in the assay with SF-539; 16.8 µM (inactive) in the assay with OVCAR-8. The GI50 in the assay with DMS-114 was 16.2 µM (inactive); in the assay with K562 it was 16.6 µM (inactive).
For `CCCCCCCCCCNCCSSCc1ccc(Cl)cc1`, the GI50 with OVCAR-4 is 1.71 µM (inactive); with DLD-1, 2.07 µM (inactive); in the assay on SNB-75, 5.86 µM (inactive); with EKVX, 3.06 µM (inactive); in the assay on UACC-257 it was 0.714 µM (active); in the assay with IGROV-1, 2.94 µM (inactive). In addition, the GI50 with MOLT-4 is 0.439 µM (active); in the assay with HCT-15, 2.48 µM; in the assay with HCT-116 it was 1.73 µM (inactive); with UACC-62, 0.407 µM (active); in the assay with SF-539 it was 1.95 µM (inactive); in the assay on OVCAR-8 it was 2.07 µM (inactive). In addition, the GI50 in the assay with DMS-114 was 1.57 µM (inactive); with HCC 2998, 1.89 µM (inactive); with K562 it was 1.24 µM (inactive).
On to `O=C1[C@H]2ON(c3ccccc3)C(c3ccccc3F)[C@H]2C(=O)N1c1ccc(Cc2ccc(N3C(=O)[C@@H]4ON(c5ccccc5)C(c5ccccc5F)[C@@H]4C3=O)cc2)cc1` (stereo not given in full), for which the GI50 in the assay with OVCAR-4 was > 100 µM (inactive); in the assay with DLD-1, > 100 µM (inactive); with SNB-75, > 100 µM (inactive); in the assay with UACC-257 it was 45.1 µM (inactive); in the assay on IGROV-1, > 100 µM (inactive); in the assay with MOLT-4, > 100 µM (inactive). Further, the GI50 with HCT-15 was more than 100 µM; with UACC-62, > 100 µM (inactive); with SF-539, > 100 µM (inactive); in the assay with NCI-H226, > 100 µM (inactive); with DMS-114, > 100 µM (inactive); in the assay with HCC 2998, > 100 µM (inactive). In addition, the GI50 with K562 is > 100 µM (inactive).
On to `CC(=O)OC1C=CC2CCN3C(=O)c4cc5c(cc4[C@H]1C23)OCO5` (stereo not given in full), for which the GI50 in the assay on DLD-1, in the assay on SNB-75, in the assay with EKVX, in the assay with UACC-257, in the assay on IGROV-1 and in the assay with MOLT-4 was > 100 µM (inactive) in each case. Besides, the GI50 in the assay on HCT-15 was more than 100 µM; in the assay with HCT-116, > 100 µM (inactive); in the assay with UACC-62, > 100 µM (inactive); in the assay with SF-539 it was > 100 µM (inactive); in the assay with OVCAR-8, > 100 µM (inactive); with NCI-H226, > 100 µM (inactive). The GI50 in the assay on DMS-114 is > 100 µM (inactive); in the assay with HCC 2998, > 10 µM (inactive); with K562, > 100 µM (inactive).
